The nature of series [1]: Water content w(H2O), Karl Fischer method. The format is physicochemical. From the text:
[…] The water content can be determined according to the Karl Fischer method as described in Ph. Eur. section 2.5.32. The determination is done by coulometry, preferably Mettler Toledo DL39 Karl Fisher Coulometer, or an equivalent apparatus, including a titration cell without diaphragm. Alternatively, the volumetric Karl Fisher method can be used to determine the water content. […] The water content can be achieved by choosing appropriate ingredients, drying, wetting or combination thereof.

Series [2] can be described thus: Compatibility study, closed container: sum of impurities by HPLC.
Procedure: Afterwards, the two components were blended in Turbula® at 72 rpm for 10 minutes. The resulting blend was compacted in the EKO eccentric compression machine in order to obtain a slug. The slug was milled manually, resulting into a milled blend. The milled blend (440 mg) was accurately weighed and placed in glass, opaque vial. […] The milled blend was then analyzed for a sum of area percent levels of impurities (A^imp) by HPLC. The HPLC was performed on Acquity UPLC BEH C8, 150×2.1 mm, dp=1.7 μm column. The detection with UV light at wavelength of 259 nm was used. The column was eluted, using a gradient method, with aqueous ammonium acetate (10 mM, pH 5.5) and acetonitrile at column temperature of 50° C. for 30 min.
The mark [3] stands for this setting: Excipients - substantially dry w(H2O) < 0.5%.
[4] abbreviates: siponimod adipic acid co-crystal:excipient 1:10 (w/w), excipients substantially dry w(H2O) < 0.5%, closed container, 1 month, 40° C., RH 75%.
Setting [5] is: Excipients - hydrated w(H2O) ≥ 5%.
Where [6] appears, read: Excipients - dry 0.5% ≤ w(H2O) < 5%.

Where two headings read alike, the source gives them in different places.

For `CCCCCCCCCCCCCCCCCCCCCC(=O)OCC(CO)OC(=O)CCCCCCCCCCCCCCCCCCCCC` (stereo not shown) [Glycerol dibehenate], the “w (H2O)” value in series [1] (setting [3]) worked out at 0.1%. In series [2] (setting [4]), the “A^imp (1 m), sum of area percent levels of impurities” value is 0.08%. `CCCCCCCCCCCCCCCCCC(=O)OCC(O)CO` (stereo not shown) [Glycerol monostearate]: the “w (H2O)” value in series [1] (setting [3]) was 0.2%. Also, in series [2] (setting [4]), the “A^imp (1 m), sum of area percent levels of impurities” value is given as 0.12%. Regarding `OC[C@H]1O[C@@H](O[C@H]2[C@H](O)[C@@H](O)C(O)O[C@@H]2CO)[C@H](O)[C@@H](O)[C@H]1O` (stereo partly shown) [Lactose], in series [1] (setting [5]), the “w (H2O)” value worked out at 5.0%. Take `OC[C@@H](O)[C@@H](O)[C@H](O)[C@H](O)CO` [Mannitol]: the “w (H2O)” value in series [1] (setting [6]) is reported as 0.6%. Regarding `CCc1cc(/C(C)=N/OCc2ccc(C3CCCCC3)c(C(F)(F)F)c2)ccc1CN1CC(C(=O)O)C1` [Siponimod adipic acid co-crystal], the “w (H2O)” value in series [1] (Active ingredients) amounted to 0.2%. Besides, the “A^imp (1 m), sum of area percent levels of impurities” value in series [2] (Active ingredients, closed container, t = 1 month, 40° C., RH 75%) is 0.09%. Turning to `CCCCCCCCCCCCCCCCCCOC(=O)/C=C/C(=O)[O-].[Na+]` [Sodium stearyl fumarate], the “w (H2O)” value in series [1] (setting [3]) came to 0.4%. Also, the “A^imp (1 m), sum of area percent levels of impurities” value in series [2] (setting [4]) was 0.08%. The corresponding values for `CCCCCCCCCCCCCCCCCCO` [Stearyl alcohol] are 0.3% and 0.05%.

As to Isomalt, the “w (H2O)” value in series [1] (setting [6]) was determined as 2.9%; in series [1] (setting [5]), 5.0%. As to Magnesium stearate, in series [1] (setting [3]), the “w (H2O)” value came out at 0.2%. In series [2], the “A^imp (1 m), sum of area percent levels of impurities” value came to 0.16%.

The values are drawn from patent US20260207513A1, “PHARMACEUTICAL COMPOSITION OF SIPONIMOD” (Synthon B.V., priority 2022, published 2026).
